Measured values published in US20260062422A1 (Halda Therapeutics OpCo, Inc., priority 2022, published 2026).

Experiments:
T47D cells = assay: Cellular growth inhibition assay for T47D cells, CellTiter-Glo; type: cell-based, human; conditions: Homo sapiens, T47D, 72 h, 72 hours treatment, CellTiter-Glo 2.0 cell viability
Procedure, shortened: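 Cells are plated at 3000/well and allowed 24 h before treatment. Test compound in medium containing 0.5% DMSO is then added, with DMSO-only wells as negative control, and plates are incubated 72 h at 37 °C. ATP luminescence (CellTiter-Glo 2.0) is then fitted to four parameters to derive GI50.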

[1] = test system: T-Rex 293 cell line SC3 cells having increased expression of androgen receptor protein due to exposure to doxycycline; assay: Cellular growth inhibition, T-Rex 293 SC3 cells with doxycycline (androgen receptor induced), CellTiter-Glo; type: cell-based; conditions: 72 h, T-Rex 293 SC3 cells with 10 ng/mL doxycycline (increased androgen receptor expression)
Procedure, shortened: (§1)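 SC3 is a T-Rex 293 clone stably transfected with wild-type androgen receptor in pcDNA4/TO, inducible by 10 ng/mL doxycycline. Cells were grown in phenol red-free DMEM with 10% charcoal-dextran FBS, with or without doxycycline, dosed 24 h after seeding (0.5% DMSO) for 72 h. Viability was read by CellTiter-Glo 2.0 luminescence and GI50 obtained from four-parameter fits.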

[2] = test system: T-Rex 293 cell line SC3 cells lacking increased expression of androgen receptor protein; assay: Cellular growth inhibition, T-Rex 293 SC3 cells without doxycycline, CellTiter-Glo; type: cell-based; conditions: 72 h, T-Rex 293 SC3 cells not exposed to doxycycline, CellTiter-Glo 2.0
Procedure, shortened: as §1

| Structure (SMILES) | GI50 (T47D cells) | GI50 [1] | GI50 [2] |
| --- | --- | --- | --- |
| COCC[C@@H]1N=C(c2ccc(CCCOC3CCN(c4ncc(C(=O)N[C@H]5C(C)(C)[C@H](Oc6ccc(C#N)c(Cl)c6)C5(C)C)cn4)CC3)cc2)c2c(sc(C)c2C)-n2c(C)nnc21 [Compound I-227, N-[3-(3-chloro-4-cyano-phenoxy)-2,2,4,4-tetramethyl-cyclobutyl]-2-[4-[3-[4-[(9S)-9-(2-methoxyethyl)-4,5,13-trimethyl-3-thia-1,8,11,12-tetrazatricyclo[8.3.0.02,6]trideca-2(6),4,7,10,12-pentaen-7-yl]phenyl]propoxy]-1-piperidyl]pyrimidine-5-carboxamide] | 0.5 to 1.5 µM | < 0.5 µM | 0.5 to 1.5 µM |
| Cc1sc2c(c1C)C(c1ccc(CCCOC3CCN(c4ncc(C(=O)N[C@H]5C(C)(C)[C@H](Oc6ccc(C#N)c(Cl)c6)C5(C)C)cn4)CC3)cc1)=N[C@@H](C)c1nnc(C)n1-2 [Compound I-228, N-[3-(3-chloro-4-cyano-phenoxy)-2,2,4,4-tetramethyl-cyclobutyl]-2-[4-[3-[4-[(9S)-4,5,9,13-tetramethyl-3-thia-1,8,11,12-tetrazatricyclo [8.3.0.02,6]trideca-2(6),4,7,10,12-pentaen-7-yl]phenyl]propoxy]-1-piperidyl]pyrimidine-5-carboxamide] | < 0.5 µM | < 0.5 µM | 0.5 to 1.5 µM |
| Cc1sc2c(c1C)C(c1ccc(OCCOC3CCN(c4ncc(C(=O)N[C@H]5C(C)(C)[C@H](Oc6ccc(C#N)c(Cl)c6)C5(C)C)cn4)CC3)cc1)=N[C@@H](CC(=O)OC(C)(C)C)c1nnc(C)n1-2 [Compound I-235, tert-butyl 2-((S)-4-(4-(2-((1-(5-(((1r,3r)-3-(3-chloro-4-cyanophenoxy)-2,2,4,4-tetramethylcyclobutyl)carbamoyl)pyrimidin-2-yl)piperidin-4-yl)oxy)ethoxy)phenyl)-2,3,9-trimethyl-6H-thieno[3,2-f][1,2,4]triazolo[4,3-a][1,4]diazepin-6-yl)acetate] | < 0.5 µM | < 0.5 µM | > 3 µM |
| Cc1sc2c(c1C)C(c1ccc(C3CC3C3CC4(CCN(c5ncc(C(=O)N[C@H]6C(C)(C)[C@H](Oc7ccc(C#N)c(Cl)c7)C6(C)C)cn5)CC4)C3)cc1)=N[C@@H](Cc1ncco1)c1nnc(C)n1-2 (stereo partly drawn) [Compound I-237] | < 0.5 µM | < 0.5 µM | > 3 µM |
| Cc1sc2c(c1C)C(c1ccc(CCC3CC4(CCCN(c5ncc(C(=O)N[C@H]6C(C)(C)[C@H](Oc7ccc(C#N)c(Cl)c7)C6(C)C)cn5)C4)C3)cc1)=N[C@@H](Cc1ncco1)c1nnc(C)n1-2 [Compound I-241] | < 0.5 µM | < 0.5 µM | < 0.5 µM |
| Cc1sc2c(c1C)C(c1ccc(C#CC3CC4(CCN(c5ncc(C(=O)N[C@H]6C(C)(C)[C@H](Oc7ccc(C#N)c(Cl)c7)C6(C)C)cn5)CC4)C3)cc1)=N[C@@H](Cc1ncco1)c1nnc(C)n1-2 [Compound I-267] | < 0.5 µM | < 0.5 µM | < 0.5 µM |
| Cc1sc2c(c1C)C(c1ccc(N3CC(CC4CCN(c5ncc(C(=O)N[C@H]6C(C)(C)[C@H](Oc7ccc(C#N)c(Cl)c7)C6(C)C)cn5)CC4)C3)cc1)=N[C@@H](C)c1nnc(C)n1-2 [Compound I-270] | < 0.5 µM | < 0.5 µM | > 3 µM |
| Cc1sc2c(c1C)C(c1ccc(N3CC(C4CCN(c5ncc(C(=O)N[C@H]6C(C)(C)[C@H](Oc7ccc(C#N)c(Cl)c7)C6(C)C)cn5)CC4)C3)cc1)=N[C@@H](C)c1nnc(C)n1-2 [Compound I-271] | 0.5 to 1.5 µM | < 0.5 µM | > 3 µM |
| Cc1sc2c(c1C)C(c1ccc(OC3CC4(C3)CC3(CCN(c5ncc(C(=O)N[C@H]6C(C)(C)[C@H](Oc7ccc(C#N)c(Cl)c7)C6(C)C)cn5)CC3)C4)cc1)=N[C@@H](Cc1ncco1)c1nnc(C)n1-2 [Compound I-283] | < 0.5 µM | < 0.5 µM | > 3 µM |
| Cc1sc2c(c1C)C(c1ccc(CC3CC4(CCN(c5ncc(C(=O)N[C@H]6C(C)(C)[C@H](Oc7ccc(C#N)c(Cl)c7)C6(C)C)cn5)CC4)C3)cc1)=N[C@@H](C)c1nnc(C)n1-2 [Compound I-436] | < 0.5 µM | < 0.5 µM | 1.5 to 3 µM |
